Data on 13 compounds can be found in ChEMBL document CHEMBL1126335, “Aryl cyanoguanidine potassium channel openers” (Bioorg Med Chem Lett, 1992).

“And” between values parts separate entries of the source, which are not always exact repeats. Equal values may be shown once.

As usually defined, the IC50 is the concentration at which inhibition is half-maximal. A low value points to greater potency in that assay.

Format in all cases: functional
For assay [1], the species on record is Rattus norvegicus. Description: Vasorelaxant potency required to relax methoxamine contracted male Wistar Kyoto rat thoracic aorta.
Assay [2] has as its system Rattus norvegicus. Briefly: Antihypertensive activity expressed as percent maximum decrease in blood pressure at 45 umol/Kg for 0-6 hrs in spontaneously hypertensive male rats when administered perorally.
The test system of assay [3] is Rattus norvegicus. Briefly: Antihypertensive activity expressed as percent maximum decrease in blood pressure at 45 umol/kg for 12-18 hrs in spontaneously hypertensive male rats when administered perorally.
The test system of assay [4] is Rattus norvegicus. Briefly: Antihypertensive activity expressed as percent maximum decrease in blood pressure at 45 umol/kg for 18-24 hrs in spontaneously hypertensive male rats when administered perorally.
The test system of assay [5] is Rattus norvegicus. Description: Antihypertensive activity expressed as percent maximum decrease in blood pressure at 45 umol/kg for 6-12 hrs in spontaneously hypertensive male rats when administered perorally.

`CC(C)(C)/N=C(\NC#N)Nc1ccc(C#N)cc1`: the IC50 in the assay filed under Rattus norvegicus [1] is 430 nM.

In the assay listed under Rattus norvegicus [1], `CC(N/C(=N\C#N)Nc1ccncc1)C(C)(C)C` (centres undefined) [PINACIDIL ANHYDROUS] had an IC50 of 70 nM. In addition, the Max decrease is 40% in the assay with Rattus norvegicus [2]; 21% and 23% in the assay on Rattus norvegicus [3]; 14% with Rattus norvegicus [4].

Regarding `CC(/N=C(\NC#N)Nc1cccc([N+](=O)[O-])c1)C(C)(C)C` (centres undefined), in the assay filed under Rattus norvegicus [1], the IC50 was 170 nM.

In turn, `CC(C)/N=C(\NC#N)Nc1ccc(C#N)cc1` yielded an IC50 in the assay listed under Rattus norvegicus [1] of 19000 nM. Compared with the last compound, the IC50 is about 110-fold higher.

`CC(/N=C(\NC#N)Nc1ccccc1)C(C)(C)C` (centres undefined): 880 nM corresponded to half-maximal inhibition in the assay filed under Rattus norvegicus [1] (IC50).

In the assay filed under Rattus norvegicus [1], `CC(/N=C(\NC#N)Nc1ccccc1[N+](=O)[O-])C(C)(C)C` (centres undefined) came in with an IC50 of 240 nM.

`CC1(C)Oc2ccc(C#N)cc2[C@@H](N2CCCC2=O)[C@@H]1O` [CROMAKALIM]: the IC50 in the assay filed under Rattus norvegicus [1] was determined as 55 nM. The Max decrease with Rattus norvegicus [2] is 63%; in the assay with Rattus norvegicus [3], 37%; in the assay with Rattus norvegicus [4], 42%; with Rattus norvegicus [5] it was 35%.

The compound `CC(/N=C(\NC#N)Nc1cccc(C#N)c1)C(C)(C)C` (centres undefined) yielded a 50% inhibitory concentration (IC50) in the assay listed under Rattus norvegicus [1] of 420 nM.

For `CCC(C)(C)/N=C(\NC#N)NCc1ccc(C#N)cc1`, the half-inhibitory concentration (IC50) in the assay listed under Rattus norvegicus [1] turned out to be 1500 nM.

In turn, `C/N=C(\NC#N)Nc1ccc(C#N)cc1` showed an IC50 in the assay listed under Rattus norvegicus [1] of 123000 nM.

Take `CC(/N=C(\NC#N)Nc1ccc(C#N)cc1)C(C)(C)C` (centres undefined): the IC50 in the assay listed under Rattus norvegicus [1] came to 22 nM. The Max decrease in the assay on Rattus norvegicus [2] is 33%; with Rattus norvegicus [3], 26%; in the assay with Rattus norvegicus [4] it was 25%; in the assay with Rattus norvegicus [5], 26%.

In turn, `CCC(C)(C)/N=C(\NC#N)Nc1ccc(C#N)cc1` displayed an IC50 in the assay listed under Rattus norvegicus [1] of 120 nM.

With `CC(/N=C(\NC#N)Nc1ccc([N+](=O)[O-])cc1)C(C)(C)C` (centres undefined), in the assay filed under Rattus norvegicus [1], the IC50 came to 5150 nM.
